Assay results taken from US20220105051A1, “COMPOUNDS FOR INCREASING MHC-I EXPRESSION AND MODULATING HISTONE DEACETYLASE ACTIVITY” (Cava Healthcare Inc., priority 2019, published 2022).
Entries after “also recorded” stand apart in the source; their conditions may differ.

Assays:
CD4+ and CD8+ T cells = assay: Analysis of tumour-infiltrating lymphocytes; assay type: in vivo, C57BL/6 mice; conditions: after 12 days of treatment, flow cytometry
Procedure: The metastatic cell line, A9, was grown in the DMEM, as previously described without, the addition of antibiotics (penicillin and streptomycin, P/S). Once cells reached 75-80% confluence, they were trypsinized (0.05%, Gibco) and washed with HBSS (Hanks balanced salt solution). The cells were counted using the Bio-RAD TC20 automated cell counter and suspended to a concentration of […] in HBSS. Thirty-two synergistic female C57BL/6 mice, between the ages 6-8 weeks, were subcutaneously injected in the right flank with 50 μL containing 5×10^4 A9 metastatic tumour cells. Seven days following tumour inoculation i.p. treatment began daily for 12 days. Four treatment groups were studied, with eight animals per group. […] Body weights were measured three times a week and once tumours developed they were measured with calipers and tumour volume was calculated. Twelve days after starting treatment, mice were euthanized and tumours were collected and weighed. The tumours were then processed for flow cytometry analysis. Tumours were cut into small pieces and incubated RPMI (Gibco; with P/S 0.5%, Sodium pyruvate 1%, and L-glutamine 1%) and 3 mg/mL collagenase A (Roche) for one hour at 37° C. with shaking. Dissociated tumour cells were passed through a 100 μm filter and spun down at 15,000×RCF for 3 minutes. The pellet was washed once in FACs buffer (2% FBS in PBS) and spun down. The pellet was next suspended in red blood cell (RBC) lysis buffer and kept at room temperature for 5 minutes before being neutralized by the addition of 5 ml of PBS and spun down. If pellets were still found to contain RBCs this step was repeated. Once all RBCs were removed cells were suspended in FACs buffer to a concentration of 10^7 cells/mL. A total volume of 200 ul of cells from each tumour were added to a 96 well plate (Falcon) and incubated with Fc Blocker (Biolegend, 1:400) for twenty minutes at 4° C. The 96 well plate was spun down at 1,200 rmp for three minutes and supernatant was removed. The cells were then suspended in 150 ul of FACs buffer containing anti-CD8a (PE-Cy7, 1:200, eBioscience) and CD4 (APC, 1:200, Biolegend) antibodies and incubated at 4° Celsius for 20 minutes. The cells were washed twice and spun down using FACs buffer before being to flow cytometry tubes in a final volume of 200 ul of FACs buffer containing 7AAD (Biolegend 1:200). Flow cytometry was performed on LSRII (BDBiosciences) and analysis was done using FlowJo (Flow cytometry Analysis Software).
Analysis of tumour-infiltrating lymphocytes (TILs). Tumour-infiltrating T lymphocyte (either CD4^+ or CD8^+ T cells) infiltration was evaluated in tumours of mice following 2-week treatment with either compounds or controls. Tumours at the site of initial injection were removed from tumour-bearing mice. Following tumour dissociation in the presence of collagenase A (Roche) and erythrocyte lysis, the tumour cells were then washed and prepared as single-cell suspensions to detect TILs. Before staining with antibodies, the cells were incubated with Fc Blocker (Ebiosciences) for 20 minutes at 4° C. The tumour cells were then washed and stained with anti-CD4-APC (Biolegend), anti-CD8-PECy7 (eBiosciences) and 7-AAD (Biolegend) viability stain. Using flow cytometry, 7-AAD positive dead cells were gated out and the remaining population was assessed for CD4^+ and CD8^+ expression. Data were acquired using a BD™ LSR II flow cytometer (BD Biosciences) with FACSDiva™ software and analyzed with FlowJo software (Treestar).

HDAC1 = biological target: T1, HDAC1 (Homo sapiens, UniProt Q13547); assay: Individualized HDAC assay, HDAC1; assay type: biochemical; conditions: purified enzyme, 5 to 0.02 μM
T1 construct: purchased BPS Biosciences
T1 sequence (Q13547 whole entry): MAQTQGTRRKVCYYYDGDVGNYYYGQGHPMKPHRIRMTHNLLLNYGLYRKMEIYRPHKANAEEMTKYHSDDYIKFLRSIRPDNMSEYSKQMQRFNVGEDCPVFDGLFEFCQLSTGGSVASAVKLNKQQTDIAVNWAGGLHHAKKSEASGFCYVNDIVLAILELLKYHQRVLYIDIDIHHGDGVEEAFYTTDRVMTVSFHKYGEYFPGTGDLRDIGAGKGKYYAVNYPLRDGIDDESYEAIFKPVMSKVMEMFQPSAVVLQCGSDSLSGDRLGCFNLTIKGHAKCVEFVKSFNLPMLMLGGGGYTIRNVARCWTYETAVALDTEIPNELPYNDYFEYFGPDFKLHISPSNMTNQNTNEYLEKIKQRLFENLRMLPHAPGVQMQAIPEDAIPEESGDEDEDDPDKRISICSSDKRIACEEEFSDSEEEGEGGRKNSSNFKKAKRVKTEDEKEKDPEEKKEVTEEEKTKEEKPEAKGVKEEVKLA
Procedure: The activity of the curcuphenol analogues was assessed with purified HDAC enzymes from all classes I, II, and IV, as well as a select member of HDAC class III (SIRT1). HDACs 1-9 and SIRT1 were evaluated using HDAC Fluorogenic Assay Kits (BPS Biosciences). All assays were completed in black-sided clear-bottom 96 well plates (PerkinElmer), and all treatments were plated in triplicates. Treatment started at 5 μM and was two-fold diluted to a concentration 0.02 μM. The assays were measured using the Synergy HI hybrid reader (BioTek) and Gen5 software (BioTek), excitation was set to 360 nm and detection was measured at 450 nm with a gain of 100. […] Luminescence was read 30 minutes after HDAC-Glo™I/II reagent was added using the Synergy HI hybrid reader (BioTek) and Gen5 software (Bio-Tek). […] The relative mean of activity of the HDAC being measured was determined and all wells that received treatment were divided this average, to give a percentage of activity.
To evaluate the effect of the compounds on specific HDACs, their activity was assessed with purified HDAC enzymes from all classes I, II, and IV, as well as a select member of HDAC class III (SIRT1). HDACs 1-9 and SIRT1 were evaluated using HDAC Fluorogenic Assay Kits (BPS Biosciences) following the manufacturer's recommendations. […] The assays were measured using the Synergy HI hybrid reader (BioTek) and Gen5 software (Bio-Tek). […]

HDAC11 = biological target: T2, HDAC11 (Homo sapiens, UniProt Q96DB2); assay: Individualized HDAC assay, HDAC11 (HDAC-Glo); assay type: biochemical; conditions: purified enzyme, 5 to 0.02 μM
T2 construct: purchased BPS Biosciences
T2 sequence (Q96DB2 1-347): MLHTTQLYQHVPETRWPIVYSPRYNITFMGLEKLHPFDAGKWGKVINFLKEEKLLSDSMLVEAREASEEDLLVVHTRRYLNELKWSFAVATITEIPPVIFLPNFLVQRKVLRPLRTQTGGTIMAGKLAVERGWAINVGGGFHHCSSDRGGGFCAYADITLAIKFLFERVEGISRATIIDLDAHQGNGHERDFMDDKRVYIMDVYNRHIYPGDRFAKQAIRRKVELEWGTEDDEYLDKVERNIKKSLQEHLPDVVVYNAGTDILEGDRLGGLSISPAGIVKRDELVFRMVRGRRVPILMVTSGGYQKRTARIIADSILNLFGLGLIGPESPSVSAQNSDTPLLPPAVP
Procedure: The activity of the curcuphenol analogues was assessed with purified HDAC enzymes from all classes I, II, and IV, as well as a select member of HDAC class III (SIRT1). HDACs 1-9 and SIRT1 were evaluated using HDAC Fluorogenic Assay Kits (BPS Biosciences). All assays were completed in black-sided clear-bottom 96 well plates (PerkinElmer), and all treatments were plated in triplicates. Treatment started at 5 μM and was two-fold diluted to a concentration 0.02 μM. The assays were measured using the Synergy HI hybrid reader (BioTek) and Gen5 software (BioTek), excitation was set to 360 nm and detection was measured at 450 nm with a gain of 100. Alternatively HDAC 10 and 11 (BPS Biosciences) were optimized for HDAC concentration using the HDAC-Glo™ I/II Assay and Screening System (Promega). Following optimization each HDAC was run following the Promega protocol in black-sided clear-bottomed 96 well plates in triplicates with same treatments listed above (PerkinElmer). Luminescence was read 30 minutes after HDAC-Glo™I/II reagent was added using the Synergy HI hybrid reader (BioTek) and Gen5 software (Bio-Tek). […] To calculate percent activity, the average of blank wells was subtracted from all treatment groups. The relative mean of activity of the HDAC being measured was determined and all wells that received treatment were divided this average, to give a percentage of activity.
To evaluate the effect of the compounds on specific HDACs, their activity was assessed with purified HDAC enzymes from all classes I, II, and IV, as well as a select member of HDAC class III (SIRT1). HDACs 1-9 and SIRT1 were evaluated using HDAC Fluorogenic Assay Kits (BPS Biosciences) following the manufacturer's recommendations. Compound treatment started at 5 μM and was two-fold diluted to a concentration 0.02 μM. […] The assays were measured using the Synergy HI hybrid reader (BioTek) and Gen5 software (Bio-Tek). […] To calculate the fold change in HDAC activity, the values from each treated well were divided by the relative mean of activity of the specific HDAC being measured.

| SMILES | CD4+ T cell infiltration of tumours (CD4+ and CD8+ T cells) | CD8+ T cell (CTL) infiltration of tumours (CD4+ and CD8+ T cells) | HDAC1 activity (HDAC1) | HDAC11 activity (HDAC11) | HDAC11 activity (HDAC11; listed as PO-3-97-1) |
| --- | --- | --- | --- | --- | --- |
| CC(C)=CCCCc1ccc(C)cc1O [P02-113] | no significant infiltration or difference; also recorded: did not appear to increase | no significant change in CTL infiltration | no significant change in HDAC activity | unaffected; also recorded: no effect was observed; also recorded: no change in activity |  |
| COc1ccc(C(C)CCC=C(C)C)c(O)c1 (stereo not drawn) [P03-97-1] | no significant infiltration or difference; also recorded: did not appear to increase | greatest CD8+ infiltration; also recorded: increase in the CTL infiltration | no significant change in HDAC activity | unaffected; also recorded: no change in activity | no effect was observed |
